Data taken from EP1500662A2, “Stabilizing peptides” (CORNELL RESEARCH FOUNDATION, INC., priority 2003, dated 2005).

Assays:
Assay type in all cases: cell-based
HIV-1 94ZW103 = test system: HIV-1 94ZW103
Protocol: (§1) PBMC Infectivity Assay. PBMC were isolated from healthy blood donors by Ficoll-Hypaque centrifugation and then stimulated for 2-3 days with phytohemagglutinin (5 µg/ml) and interleukin-2 (100 U/ml). The inhibition assay was performed essentially as described previously (Trkola, A., T. Ketas, V. N. KewalRamani, F. Endorf, J. M. Binley, H. Katinger, J. Robinson, D. R. Littman, and J. P. Moore. 1998. Neutralization sensitivity of human immunodeficiency virus type 1 primary isolates to antibodies and CD4-based reagents is independent of co-receptor usage. J. Virol. 72:1876-1885; Trkola, A., W. A. Paxton, S. P. Monard, J. A. Hoxie, M. A. Siani, D. A. Thompson, L. Wu, C. R. Mackay, R. Horuk, and J. P. Moore. 1998. Genetic subtype-independent inhibition of human immunodeficiency virus type 1 replication by CC and CXC chemokines. J. Virol. 72:396-404).
(§2) Briefly, the virus inoculum was adjusted to 400-1,000 TCID50/ml in assay medium (RPMI 1640, 10% FCS, 100 U of interleukin-2 per ml, glutamine, and peptides), and 50 µl aliquots were incubated with serial dilutions of the peptide inhibitors (50 µl) for 1 h at 37 °C. […] RBMC (4 x 10^5 in 100 µl of medium) were then added. The final concentration of virus in the cultures was 20-50 TCID50/well, corresponding to 100-250 TCID50/ml. […] The viral inocula in 50% tissue culture infectious doses (TCID50) were 400-1000/ml.

HIV-1 CM.235 = test system: HIV-1 CM.235
Protocol: as §1, §2

HIV-1 Case C 7/86 = test system: HIV-1 Case C 7/86
Protocol: as §1, §2

HIV-1 DJ258 = test system: HIV-1 DJ258
Protocol: as §1, §2

HIV-1 JFRL = test system: HIV-1 JFRL
Protocol: as §1, §2

HIV-1 NL4-3 = test system: HIV-1 NL4-3
Protocol: as §1, §2

HIV-1 UG270 = test system: HIV-1 UG270
Protocol: as §1, §2

Enfuvirtide
IC50 (HIV-1 94ZW103): 13 nM | IC50 (HIV-1 CM.235): 79 nM | IC50 (HIV-1 Case C 7/86): 4 nM | IC50 (HIV-1 DJ258): 83 nM | IC50 (HIV-1 JFRL): 9 nM | IC50 (HIV-1 NL4-3): 35 nM | IC50 (HIV-1 UG270): 257 nM
